Assay results reported in patent US20180200326A1, “ANG-(1-7) AND DERIVATIVE OLIGOPEPTIDES FOR THE TREATMENT OF TRAUMATIC BRAIN INJURY AND OTHER COGNITIVE IMPAIRMENTS” (Arizona Board Of Regents On Behalf Of The University of …, priority 2017, published 2018).
Like-named read-outs stand apart in the source and are kept apart here. Peptide text beside a SMILES is read from it. * marks the point of attachment. X2 = OC[C@H]1O[C@@H](O[C@H]2[C@H](O)[C@@H](O)C(*)O[C@@H]2CO)[C@H](O)[C@@H](O)[C@H]1O; X1 = OC[C@H]1OC(*)[C@H](O)[C@@H](O)[C@@H]1O

What was measured:
[1] = mouse, serum
Experimental: (§3) Aliquots were withdrawn at the indicated time intervals and the peptide concentration was determined using HPLC-MS and expressed as a percentage of the initial concentration.

[2] = test system: human umbilical vascular endothelial cells (HUVEC); assay: xCELLigence RTCA cell activation (cell impedance); assay type: cell-based; conditions: average of 4 wells, normalized to CI at compound addition
From the text: (§1) To isolate primary hippocampal CA1 neuronal cells, whole brain was removed from neonatal rat pups (1-2 day old) and the cortices dissected away. The hippocampus was isolated and the CA1 field was excised and placed in buffer. After gentle disruption in digestion buffer, the cells were counted, placed in culture media, and plated in a 96-well format coated with poly-d-lysine. At the time of plating, cells were approximately at 50% density and were allowed to culture to 70-80% density before starting the assay. Commercially available HUVEC (Life Technologies/Thermo Fisher) was thawed and plated (5000-10,000 cells/well) in a 96-well format coated with gelatin. HUVEC cells were allowed to culture overnight before starting the assay.
The xCELLigence system Real-Time Cell Analyzer (RTCA), developed by Roche Applied Science, uses microelectronic biosensor technology to do dynamic, real-time, label-free, and non-invasive analysis of cellular events including G-protein receptor activation of cells. The RTCA analysis was utilized to measure the potency and relative ability of oligopeptides of the invention and native Ang-(1-7) to activate human umbilical vascular endothelial cells (HUVEC) in culture. Following uniform cellular adherence based on a linear increase in cell impedance (CI), HUVECs were treated with Ang-(1-7) and oligopeptides of the invention. Each trace of the CI over time in FIG. 1 represents the average of 4 wells normalized to CI at the time of compound addition.

[3] = test system: human umbilical vascular endothelial cells (HUVEC); assay: NO production assay (DAF-FM fluorescence, microplate reader); assay type: cell-based; conditions: 5 minutes exposure; for NO over control levels (relative peak fluorescence intensity): normalized to control fluorescence
From the text: as §1
As a screen for mechanisms of action of oligopeptides of the invention, the ability to increase NO production of three oligopeptides of the invention (PN-A3, PN-A4 and PN-A5) were characterized and compared to native Ang-(1-7). Human umbilical vascular endothelial cells (HUVEC) culture plates received fluorescence reaction buffer (0.2 M phosphate buffer, pH 7, 1 mM EDTA, 0.1% glucose) containing diaminofluorescein-FM diacetate (DAF-FM, 1 μM) to measure real-time NO production. Time-resolved (10 minutes) fluorescent intensity was detected using a BioTek Synergy 2 microplate reader with excitation at 485 nm and emission at 535 nm. DAF-FM is a sensitive flourometric derivative for the selective detection of NO in live cells.
Values were normalized to control fluorescence.

[4] = test system: CHF mice (object recognition memory impairment); assay: Novel Object Recognition (NOR) in congestive heart failure mice; assay type: in vivo, mouse; conditions: 1 mg/kg/day subcutaneous, approximately 21 days, n=11, DRatio=(t novel−t familiar)/(t novel+t familiar), CHF-saline M=−0.05, Sham-saline M=+0.52
Experimental: (§2) A total of 33, male C57Bl/6J adult mice (Harlan, 8-10 weeks old) were used. Mice were randomly assigned to either the sham (n=12) or congestive heart failure (CHF) group (n=21). Experimental groups are described as follows: sham+saline, CHF+saline, CHF+PN-A5. All mice prior to surgery were weighed and anesthetized. For the CHF mice, MI was induced by ligation of the left coronary artery (LCA). Under anesthesia (2.5% isoflurane in a mixture of air and O2) a thoracotomy was performed at the fourth left intercostal space and the LCA permanently ligated to induce a myocardial infarction (MI). […]
The apparatus consisted of an evenly illuminated Plexiglas box (12 cm×12 cm×12 cm) placed on a table inside an isolated observation room. […] The mouse behavior and exploration of objects was recorded with a digital camera. […]
The novel object recognition task included 3 phases: habituation phase, familiarization phase, and test phase. […] Exploration was scored by an observer blind to the mouse's surgical group (CHF vs. Sham). […]
Discrimination ratios were calculated from the time spent exploring the novel object minus time spent exploring the familiar object during the test phase divided by the total exploration time. […] Data were analyzed from first 2 minutes of ‘test phase’. […]

[5] = test system: CHF mice (spatial memory impairment); assay: Morris water task (spatial memory) in congestive heart failure mice; assay type: in vivo, mouse; conditions: 1 mg/kg/day subcutaneous, approximately 25 days, day 3 of Morris swim task, n=11, CHF-saline M=32.5
Experimental: as §2, with “(MI). Occlusion of the LCA was confirmed by observing blanching, a slight change in color of the anterior wall of the left ventricle downstream of the ligature. Sham mice underwent the same procedure with the exception of ligating the LCA.” for “(MI).”
During the spatial version of the Morris water task, all animals were given 6 training trials per day over 4 consecutive days. […] Performance on the swim task was analyzed with a commercial software application (ANY-maze, Wood Dale, Ill.). Because different release locations and differences in swimming velocity produce variability in the latency to reach the escape platform, a corrected integrated path length (CIPL) was calculated to ensure comparability of mice performance across different release locations. […]

[6] = In vivo serum and CSF concentration after subcutaneous injection; conditions: naïve mice; 10 mg/kg subcutaneous; microdialysis probe; corrected for basal CSF levels
Experimental: (§4) The peptides (10 mg/kg) or vehicle control were individually subcutaneously injected into naïve mice. Serum concentrations were determined every 10 minutes by HPLC-MS using a 20-30 μl blood sample. […] CSF samples were simultaneously withdrawn from the same animals via a microdialysis probe and assayed for the peptide concentration and corrected for basal CSF levels.

[7] = In Vitro Serum Half-Life Assay; conditions: mouse
Experimental: as §3

[8] = mouse, in vivo, sc, 10 mg/kg
Experimental: as §4

Mas receptor (MasR) = molecular target: T1, Mas receptor (MasR) (Homo sapiens, UniProt P04201); conditions: binding to GPCR Mas receptor (MasR); cited from earlier work
T1 sequence (P04201 1-325): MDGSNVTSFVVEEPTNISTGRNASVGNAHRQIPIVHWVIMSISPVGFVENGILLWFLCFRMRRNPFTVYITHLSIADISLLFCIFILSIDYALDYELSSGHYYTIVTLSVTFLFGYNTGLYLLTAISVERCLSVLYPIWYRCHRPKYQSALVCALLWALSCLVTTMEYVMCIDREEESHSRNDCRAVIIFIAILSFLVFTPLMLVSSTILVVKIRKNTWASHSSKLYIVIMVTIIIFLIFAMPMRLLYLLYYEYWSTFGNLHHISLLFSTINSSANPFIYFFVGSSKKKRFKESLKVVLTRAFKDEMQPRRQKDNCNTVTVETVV

in vivo = conditions: mouse, sc, 10 mg/kg
Experimental: as §4

CC[C@H](C)[C@H](NC(=O)[C@H](Cc1ccc(O)cc1)NC(=O)[C@@H](NC(=O)[C@H](CCCNC(=N)N)NC(=O)[C@@H](N)CC(=O)O)C(C)C)C(=O)N[C@@H](Cc1c[nH]cn1)C(=O)N1CCC[C@H]1C(N)=O [PN-A2, Ang 1-7-NH2]
half-life [1]: 21 min

CC[C@H](C)[C@H](NC(=O)[C@H](Cc1ccc(O)cc1)NC(=O)[C@@H](NC(=O)[C@H](CCCNC(=N)N)NC(=O)[C@@H](N)CC(=O)O)C(C)C)C(=O)N[C@@H](Cc1c[nH]cn1)C(=O)N[C@@H](COC1O[C@H](CO)[C@@H](O)[C@H](O)[C@H]1O)C(N)=O (stereo partly drawn) [PN-A5, Ang 1-6-Ser(OGlc)-NH2] (H-DRVYIHS(X1)-NH2; N-terminus assumed)
increase in CI (cell impedance) over the native Ang-(1-7) ([2]; 10 nM): ~2 fold | increase in CI (cell impedance) over the native Ang-(1-7) ([2]; 100 nM): ~2 fold | NO over control levels (relative peak fluorescence intensity) [3]: significant elevation | NO production compared with native Ang-(1-7) ([3]; p<0.05): significantly enhancing NO production | discrimination ratio in NOR test (mean M) [4]: +0.38 | corrected integrated path length (CIPL), mean M [5]: 23.5 | maximum CSF concentration [6]: about 400 nM

CC[C@H](C)[C@H](NC(=O)[C@H](Cc1ccc(O)cc1)NC(=O)[C@@H](NC(=O)[C@H](CCCNC(=N)N)NC(=O)[C@@H](N)CC(=O)O)C(C)C)C(=O)N[C@@H](Cc1c[nH]cn1)C(=O)N[C@@H](COC1O[C@H](CO)[C@@H](O[C@@H]2O[C@H](CO)[C@H](O)[C@H](O)[C@H]2O)[C@H](O)[C@H]1O)C(N)=O (stereo partly drawn) [PN-A6, Ang 1-6-Ser(OLac)-NH2] (H-DRVYIHS(X2)-NH2)
half-life [7]: 348 min

CC[C@H](C)[C@H](NC(=O)[C@H](Cc1ccc(O)cc1)NC(=O)[C@@H](NC(=O)[C@H](CCCNC(=N)N)NC(=O)[C@@H](N)CC(=O)O)C(C)C)C(=O)N[C@@H](Cc1c[nH]cn1)C(=O)N1CCC[C@H]1C(=O)O [native Ang-(1-7), Asp-Arg-Val-Tyr-Ile-His-Pro]
half-life [1]: 14 min | maximum CSF concentration [8]: about 50 nM | Kd (Mas receptor (MasR)): 0.83 nM | Cmax (in vivo): ~200 nM

PN-A3: native Ang(1-7) sequence with added C-terminal Ser8, glucosylated and C-terminally amidated (NH2); SEQ ID NO: 9 (DRVYIHPS; glucosylated, C-terminal amide; (8)..(8) Glycosylated; (8)..(8) Carboxy terminal NH2; See specification as filed for detailed description of substitutions and preferred embodiments)
increase in CI (cell impedance) over the native Ang-(1-7) ([2]; 10 nM): ~2 fold | increase in CI (cell impedance) over the native Ang-(1-7) ([2]; 100 nM): ~2 fold | NO over control levels (relative peak fluorescence intensity) [3]: significant elevation

PN-A4: native Ang(1-7) sequence with added C-terminal Ser8, lactosylated and C-terminally amidated (NH2); SEQ ID NO: 9 (DRVYIHPS; lactosylated, C-terminal amide; (8)..(8) Glycosylated; (8)..(8) Carboxy terminal NH2; See specification as filed for detailed description of substitutions and preferred embodiments)
increase in CI (cell impedance) over the native Ang-(1-7) ([2]; 100 nM): ~2 fold | NO over control levels (relative peak fluorescence intensity) [3]: significant elevation
